Experimental data taken from US20230141718A1, “METHODS OF TREATING GLIOBLASTOMA” (CELGENE QUANTICEL RESEARCH, INC., priority 2021, published 2023).

Tests used:
[1] = Safety (TRAEs/TEAEs), CC-90010-GBM-002 Parts A and B; format: in vivo
Source text: This was then followed by a break in treatment therapy, e.g., from 1 to up to 4 weeks. […] Adjuvant therapy cycles were repeated from 2 to 6 times. After adjuvant therapy, was a monotherapy treatment.
The demographics and characteristics of treated patients are described in the below table.

[2] = cited from earlier work
glioblastoma = settings: in vivo; cited from earlier work

Compound: Cn1nnc2c(C(N)=O)ncn2c1=O [TMZ, 3,4-dihydro-3-methyl-4-oxoimidazo[5,1-d]-as-tetrazine-8-carboxamide, reference compound]
- patients with TRAEs related to TMZ ([1]; Part B arm A): 75%
- patients with nausea related to TMZ ([1]; Part B arm A): 46%
- patients with thrombocytopenia related to TMZ ([1]; Part B arm A): 46%
- patients with TRAEs related to TMZ ([1]; Part B arm B): 73%
- patients with thrombocytopenia related to TMZ ([1]; Part B arm B): 40%

Compound: C#Cc1cccc(Nc2ncnc3cc(OCCOC)c(OCCOC)cc23)c1 [erlotinib]
- tissue:plasma ratio ([2]; brain tumor tissue): 0.06-0.08

Compound: COc1cc2ncnc(Nc3ccc(F)c(Cl)c3)c2cc1OCCCN1CCOCC1 [gefitinib]
- antitumor activity in glioblastoma (glioblastoma): neither lapatinib nor gefitinib have shown evidence of antitumor activity
- median concentration in tumor tissue ([2]; glioblastoma tumor tissue): 4100 ng/g
- median concentration in plasma ([2]; in vivo): 181 ng/mL

Compound: CS(=O)(=O)CCNCc1ccc(-c2ccc3ncnc(Nc4ccc(OCc5cccc(F)c5)c(Cl)c4)c3c2)o1 [lapatinib]
- antitumor activity in glioblastoma (glioblastoma): neither lapatinib nor gefitinib have shown evidence of antitumor activity
- tissue:plasma ratio, mean ([2]; brain tumor tissue): 13.0

Compound: O=C(c1cc(Cc2n[nH]c(=O)c3ccccc23)ccc1F)N1CCN(C(=O)C2CC2)CC1 [olaparib]
- tissue:plasma ratio, mean ([2]; brain tumor tissue): 0.25
